Data: US8513271B2, “Pyrimidine compounds as delta opioid receptor modulators” (Janssen Pharmaceutica, NV, priority 2009, dated 2013)
Where “and” joins values, the source holds several entries; their conditions need not be identical. Equal values may be shown once. Read-outs that look alike come from different tables or passages of the source.

Key:
delta opioid receptor [1] = molecular target: T1, delta opioid receptor (Mus musculus, UniProt P32300); assay: NG108-15, 24-well delta opioid receptor binding assay
T1 construct: NG108-15 cell membranes were purchased from Applied Cell Sciences (Rockville, Md.); host or cells: NG108-15 cell membranes
T1 sequence (P32300 whole entry): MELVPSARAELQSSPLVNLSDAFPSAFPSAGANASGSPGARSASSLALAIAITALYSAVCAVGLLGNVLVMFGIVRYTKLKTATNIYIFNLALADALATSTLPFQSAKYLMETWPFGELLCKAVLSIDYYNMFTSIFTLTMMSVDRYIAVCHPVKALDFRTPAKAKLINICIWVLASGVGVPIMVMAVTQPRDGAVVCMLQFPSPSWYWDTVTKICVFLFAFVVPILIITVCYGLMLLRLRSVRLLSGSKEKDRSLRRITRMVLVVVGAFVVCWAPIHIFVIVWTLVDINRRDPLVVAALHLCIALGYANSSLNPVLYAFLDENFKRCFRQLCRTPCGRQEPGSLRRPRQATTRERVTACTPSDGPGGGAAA

delta opioid receptor [2] = molecular target: T1, delta opioid receptor; assay: [35S]GTPγS binding assay in NG108-15 cell membranes (delta opioid functional assay), 200 nM screen; format: biochemical; conditions: for GTPγS δ-RelEfficacy @200 nM: 200 nM test compound, relative to calculated max of SNC80 dose response curve; for GTPγS δ-RelEfficacy @200 nM / EC50 / GTPγS δ-opioid receptor Rel Efficacy: NG108-15 cell membranes; for GTPγS δ-RelEfficacy @200 nM / EC50: averages if tested more than once; for GTPγS δ-opioid receptor Rel Efficacy: relative efficacy from dose response; for inhibition at 10 µM: read-out: GTPγS δ-opioid receptor % Inh @10 μM
mu opioid receptor = molecular target: T2, mu opioid receptor (Rattus norvegicus, UniProt P33535); assay: Rat brain mu opioid receptor binding assay; conditions: rat forebrain, [3H]DAMGO ligand
T2 construct: the forebrains were homogenized in Tris buffer in a Teflon®-glass homogenizer; from tissue; host or cells: forebrain of male Wistar rats, particulate (membrane) preparation
T2 sequence (P33535 whole entry): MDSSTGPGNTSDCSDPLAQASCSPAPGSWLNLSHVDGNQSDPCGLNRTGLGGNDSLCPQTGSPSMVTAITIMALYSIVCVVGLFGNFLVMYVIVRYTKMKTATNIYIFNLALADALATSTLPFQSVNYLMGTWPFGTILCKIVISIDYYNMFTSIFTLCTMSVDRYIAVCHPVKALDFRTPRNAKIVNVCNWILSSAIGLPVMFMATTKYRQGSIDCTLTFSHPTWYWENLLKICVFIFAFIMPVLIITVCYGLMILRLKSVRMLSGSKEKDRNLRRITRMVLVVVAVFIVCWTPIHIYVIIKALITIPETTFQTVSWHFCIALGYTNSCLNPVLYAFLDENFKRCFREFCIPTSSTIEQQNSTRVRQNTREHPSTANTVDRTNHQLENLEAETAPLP

delta opioid receptor [3] = molecular target: T3, delta opioid receptor (Rattus norvegicus, UniProt P33533); assay: Rat brain delta opioid receptor binding assay; conditions: rat forebrain
T3 construct: the forebrains were homogenized in Tris buffer in a Teflon®-glass homogenizer; from tissue; host or cells: forebrain of male Wistar rats, particulate (membrane) preparation
T3 sequence (P33533 whole entry): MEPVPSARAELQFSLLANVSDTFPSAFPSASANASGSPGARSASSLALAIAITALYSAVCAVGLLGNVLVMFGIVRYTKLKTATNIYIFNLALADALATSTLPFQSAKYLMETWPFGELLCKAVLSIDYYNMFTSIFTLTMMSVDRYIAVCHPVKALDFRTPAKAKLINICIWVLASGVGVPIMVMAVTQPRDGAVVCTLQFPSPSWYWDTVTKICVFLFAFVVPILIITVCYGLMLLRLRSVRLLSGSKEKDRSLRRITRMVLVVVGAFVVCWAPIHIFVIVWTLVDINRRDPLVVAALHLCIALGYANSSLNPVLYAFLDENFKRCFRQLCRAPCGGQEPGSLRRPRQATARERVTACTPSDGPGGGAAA

[4] = [3H]Naltrindole ligand, NG108-15 cell membranes, read-out: δ-binding NG108 cell membrane Ki
[5] = read-out: GTPγS δ-opioid receptor EC50
[6] = [3H]naltrindole ligand, read-out: δ-binding (Naltrindole ligand) Ki
[7] = δ-binding (Naltrindole ligand) Ki, [3H]naltrindole ligand
[8] = GTPγS δ-opioid receptor EC50 (μM)

SMILES	Ki (delta opioid receptor [1]; [4]) [nM]	EC50 (delta opioid receptor [2]; [5]) [µM]	GTPγS δ-opioid receptor Rel Efficacy (delta opioid receptor [2])	Ki (delta opioid receptor [3]; [7]) [nM]	further results
CSc1ccc(Oc2nc(-c3cncnc3)ncc2NC[C@@H]2CCCN2)cc1 [Cpd 151]	1	0.119	1.121	–	GTPγS δ-RelEfficacy @200 nM (delta opioid receptor [2]): 0.704
COc1ccc(Oc2nc(-c3cncc(C#N)c3)ncc2NC[C@@H](N)CC(C)C)cc1 [Cpd 294]	6	> 10	–	–	–
O=C(O)c1cccc(Oc2nc(-c3cncc(F)c3)ncc2NC[C@@H]2CCCN2)c1 [Cpd 164]	2280	–	–	–	–
COc1ccc(Oc2nc(-c3cncc(F)c3)ncc2NC[C@H]2COCCN2)cc1 [Cpd 281]	1	–	–	–	GTPγS δ-RelEfficacy @200 nM (delta opioid receptor [2]): 0.221
CSc1ccc(Oc2nc(-c3cccnc3)ncc2NC[C@@H]2CCCN2)cc1 [Cpd 152]	0.4	0.07	1.083	–	GTPγS δ-RelEfficacy @200 nM (delta opioid receptor [2]): 0.607
COc1ccc(Oc2nc(-c3cc(F)cc(C#N)c3)ncc2NC[C@@H]2CCCN2)cc1 [Cpd 142]	0.2	0.029	1.006	–	GTPγS δ-RelEfficacy @200 nM (delta opioid receptor [2]): 0.931
O=C(c1ccc(Oc2nc(-c3cccnc3)ncc2NC[C@@H]2CCCN2)cc1)N1CCCC1 [Cpd 158]	1600	–	–	–	–
CC(C)Oc1ccc(Oc2nc(-c3cccnc3)ncc2NC[C@@H]2CCCN2)cc1 [Cpd 141]	3	–	–	–	GTPγS δ-RelEfficacy @200 nM (delta opioid receptor [2]): 0.149
CCN(CC)C(=O)c1cccc(Oc2nc(-c3cccnc3)ncc2NC[C@@H]2CCCN2)c1 [Cpd 157]	40	–	–	–	GTPγS δ-RelEfficacy @200 nM (delta opioid receptor [2]): 0.213
O=C(Nc1ccc(Oc2nc(-c3cccnc3)ncc2NC[C@@H]2CCCN2)cc1)C1CC1 [Cpd 138, Cyclopropanecarboxylic acid (4-{2-pyridin-3-yl-5-[(pyrrolidin-2-(S)-ylmethyl)-amino]-pyrimidin-4-yloxy}-phenyl)-amide]	–	1.34	–	–	Ki (delta opioid receptor [1]): 4 nM
N#Cc1cncc(-c2ncc(NC[C@@H]3CCCN3)c(Oc3ccc(Cl)cc3)n2)c1 [Cpd 129]	0.3	0.0551	0.976	–	GTPγS δ-RelEfficacy @200 nM (delta opioid receptor [2]): 0.633
COc1ccc(Oc2nc(-c3cncc(F)c3)ncc2NC[C@@H]2CCCN2)cc1F [Cpd 131]	0.2	0.076	1.063	–	GTPγS δ-RelEfficacy @200 nM (delta opioid receptor [2]): 0.819
O=C(O)c1ccc(Oc2nc(-c3cccnc3)ncc2NC[C@@H]2CCCN2)cc1 [Cpd 159]	4450	–	–	–	–
COc1ccc(Oc2nc(-c3ccncc3)ncc2NC[C@@H]2CCCN2)cc1 [Cpd 7]	–	0.436	0.912	–	Ki (mu opioid receptor; read-out: μ-binding Ki): 2170 nM; Ki (delta opioid receptor [3]; [6]): 13 nM; inhibition at 10 µM (delta opioid receptor [2]): 17.1%
N#Cc1cccc(Oc2nc(-c3cccnc3)ncc2NC[C@@H]2CCCN2)c1 [Cpd 135, 3-{2-Pyridin-3-yl-5-[(pyrrolidin-2-(S)-ylmethyl)-amino]-pyrimidin-4-yloxy}-benzonitrile]	–	1.38	–	–	Ki (delta opioid receptor [1]): 2 nM
COc1ccc(Oc2nc(-c3cnc(C#N)nc3)ncc2NC[C@@H]2CCCN2)cc1 [Cpd 121]	–	–	1.010	20	Ki (mu opioid receptor; μ-binding Ki): 379 nM; EC50 (delta opioid receptor [2]; [8]): 0.019 µM
CCOc1ccc(Oc2nc(-c3cncnc3)ncc2NC[C@@H]2CCCN2)cc1 [Cpd 105]	–	0.146	–	3	Ki (mu opioid receptor; read-out: μ-binding Ki): 421 nM
N#Cc1ccc(Oc2nc(-c3cccnc3)ncc2NC[C@@H]2CCCN2)cc1F [Cpd 137]	9	> 10	–	–	–
COc1ccc(Oc2nc(-c3ccc(N)nc3)ncc2NC[C@@H]2CCCN2)cc1 [Cpd 72]	–	0.105	0.905	–	Ki (mu opioid receptor; read-out: μ-binding Ki): 732 nM; Ki (delta opioid receptor [3]; [6]): 2 nM; inhibition at 10 µM (delta opioid receptor [2]): 15.2%
COc1ccc(Oc2nc(-c3cccc4ccccc34)ncc2NC[C@@H]2CCCN2)cc1 [Cpd 5]	–	0.164	0.803	–	Ki (mu opioid receptor; read-out: μ-binding Ki): > 10000 nM; Ki (delta opioid receptor [3]; [6]): 157 nM; inhibition at 10 µM (delta opioid receptor [2]): 18.1%

SMILES	Ki (delta opioid receptor [1]; [4]) [nM]	EC50 (delta opioid receptor [2]; [5]) [µM]	GTPγS δ-opioid receptor Rel Efficacy (delta opioid receptor [2])	Ki (delta opioid receptor [3]; [7]) [nM]	further results
O=C(O)c1ccc(Oc2nc(-c3cncc(F)c3)ncc2NC[C@@H]2CCCN2)cc1 [Cpd 165]	3760	–	–	–	–
COc1ccc(Oc2nc(-c3ccc(OC)c(F)c3)ncc2NC[C@@H]2CCCN2)cc1 [Cpd 64]	–	–	0.830	8	Ki (mu opioid receptor; μ-binding Ki): 466 nM; EC50 (delta opioid receptor [2]; [8]): 0.088 µM; inhibition at 10 µM (delta opioid receptor [2]): 12%
COc1ccc(Oc2nc(-c3ccc(F)c(F)c3)ncc2NC[C@@H]2CCCN2)cc1 [Cpd 56]	–	0.536	–	15	Ki (mu opioid receptor; read-out: μ-binding Ki): 1940 nM; inhibition at 10 µM (delta opioid receptor [2]): 26.3%
COc1ccc(Oc2nc(-c3cnc(OC)nc3OC)ncc2NC[C@@H]2CCCN2)cc1 [Cpd 58]	–	1.51	–	4	Ki (mu opioid receptor; read-out: μ-binding Ki): 640 nM; inhibition at 10 µM (delta opioid receptor [2]): 12.8%
O=C(c1ccc(Oc2nc(-c3cccnc3)ncc2NC[C@@H]2CCCN2)cc1)N1CCCCC1 [Cpd 160, Piperidin-1-yl-(4-{2-pyridin-3-yl-5-[(pyrrolidin-2-(S)-ylmethyl)-amino]-pyrimidin-4-yloxy}-phenyl)-methanone]	338	–	–	–	–
COc1ccc(Oc2nc(-c3cncc(C#N)c3)ncc2NC[C@H]2CCCC[C@@H]2N)cc1 [Cpd 299]	–	0.129	–	23	Ki (mu opioid receptor; read-out: μ-binding Ki): 222 nM
COc1ccc(Oc2nc(-c3ccccc3)ncc2NC[C@@H]2CCCN2)cc1 [Cpd 2]	–	–	0.733	33	Ki (mu opioid receptor; μ-binding Ki): 3140 nM and 3390 nM; Ki (delta opioid receptor [3]; δ-binding (DPDPE ligand) Ki, [3H]DPDPE ligand): 20 nM; EC50 (delta opioid receptor [2]; [8]): 0.43 µM and 0.069 µM; inhibition at 10 µM (delta opioid receptor [2]): 5.79%
CN1CCN(C(=O)c2ccc(Oc3nc(-c4cccnc4)ncc3NC[C@@H]3CCCN3)cc2)CC1 [Cpd 162]	852	–	–	–	–
COc1ccc(Oc2nc(-c3cncnc3)ncc2NC[C@@H]2C[C@@H](F)CN2)cc1 [Cpd 80]	–	0.113	–	2	Ki (mu opioid receptor; read-out: μ-binding Ki): 106 nM
COc1ccc(Oc2nc(-c3ccc(O)nc3)ncc2NC[C@@H]2CCCN2)cc1 [Cpd 74]	–	0.856	–	26	Ki (mu opioid receptor; read-out: μ-binding Ki): 1060 nM; inhibition at 10 µM (delta opioid receptor [2]): 2.37%
N#Cc1cncc(-c2ncc(NC[C@@H]3CCCN3)c(Oc3ccc(OC(F)F)cc3)n2)c1 [Cpd 110]	–	–	0.986	33	Ki (mu opioid receptor; μ-binding Ki): 1070 nM; EC50 (delta opioid receptor [2]; [8]): 0.081 µM
COc1ccc(Oc2nc(-c3ccc4c(c3)OCO4)ncc2NC[C@@H]2CCCN2)cc1 [Cpd 93]	–	–	1.115	8	Ki (mu opioid receptor; μ-binding Ki): 554 nM; EC50 (delta opioid receptor [2]; [8]): 0.072 µM
CCCOc1ccc(Oc2nc(-c3cncc(C#N)c3)ncc2NC[C@@H]2CCCN2)cc1 [Cpd 113]	–	–	1.104	45	Ki (mu opioid receptor; μ-binding Ki): 1430 nM; EC50 (delta opioid receptor [2]; [8]): 0.075 µM
COc1ccc(Oc2nc(-c3cnn(C)c3)ncc2NC[C@@H]2CCCN2)cc1 [Cpd 67]	–	0.194	–	1	Ki (mu opioid receptor; read-out: μ-binding Ki): 1560 nM
O=C(O)c1cccc(Oc2nc(-c3cccnc3)ncc2NC[C@@H]2CCCN2)c1 [Cpd 163]	6390	–	–	–	–
O=C(c1ccc(Oc2nc(-c3cccnc3)ncc2NC[C@@H]2CCCN2)cc1)N1CCOCC1 [Cpd 161]	795	–	–	–	–
COc1ccc(Oc2nc(-c3cncnc3)ncc2NC[C@@H](N)CC(C)C)cc1 [Cpd 295]	–	–	–	–	Ki (delta opioid receptor [1]): 64 nM
COc1ccc(Oc2nc(-c3ccnc(SC)n3)ncc2NC[C@@H]2CCCN2)cc1 [Cpd 66, [4-(4-Methoxy-phenoxy)-2′-methylsulfanyl-[2,4]bipyrimidinyl-5-yl]-pyrrolidin-2-(S)-ylmethyl-amine]	–	0.568	–	10	Ki (mu opioid receptor; read-out: μ-binding Ki): 390 nM; inhibition at 10 µM (delta opioid receptor [2]): 5.77%
CCOc1ccc(Oc2nc(-c3cncc(C#N)c3)ncc2NC[C@@H]2CCCN2)cc1 [Cpd 104]	–	–	0.921	8	Ki (mu opioid receptor; μ-binding Ki): 190 nM; EC50 (delta opioid receptor [2]; [8]): 0.018 µM
CN1CCN(C(=O)c2cccc(Oc3nc(-c4cccnc4)ncc3NC[C@@H]3CCCN3)c2)CC1 [Cpd 169]	33	–	–	–	–
